Measurements: PubChem BioAssay AID330 (DTP/NCI, 2004)
Values joined by “and” are separate entries in the source; they are usually repeats but may differ in a detail not shown here. Equal values may be shown once. Toxic doses and inconclusive results are not listed.

System: P388 leukemia ip, CD2F1 mice, survival T/C
Assay: NCI In Vivo Anticancer Drug Screen. Data for tumor model P388 Leukemia (intraperitoneal) in CD2F1 (CDF1) mice
Details: endpoint: median survival time, higher = longer survival
In short: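 Mice carrying the transplanted tumor received test compound or vehicle. Survival was recorded in each group, and the value is the treated-group measurement divided by that of the vehicle-treated control group.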

[1] = dose: 12.5 mg/kg/injection, schedule: Q01DX005 (ip), vehicle: saline with Tween-80
[2] = dose: 200.0 mg/kg/injection, schedule: Q01DX005 (ip), vehicle: saline with Tween-80
[3] = dose: 25.0 mg/kg/injection, schedule: Q01DX005 (ip), vehicle: saline with Tween-80
[4] = dose: 50.0 mg/kg/injection, schedule: Q01DX005 (ip), vehicle: saline with Tween-80
[5] = dose: 100.0 mg/kg/injection, schedule: Q01DX005 (ip), vehicle: saline with Tween-80
[6] = dose: 50.0 mg/kg/injection, schedule: Q01DX005 (ip), vehicle: Klucel (hydroxypropylcellulose) (HPC)
[7] = dose: 100.0 mg/kg/injection, schedule: Q01DX005 (ip), vehicle: Klucel (hydroxypropylcellulose) (HPC)
[8] = dose: 200.0 mg/kg/injection, schedule: Q01DX005 (ip), vehicle: Klucel (hydroxypropylcellulose) (HPC)
[9] = dose: 50.0 mg/kg/injection, schedule: Q01DX005 (ip), vehicle: saline
[10] = dose: 100.0 mg/kg/injection, schedule: Q01DX005 (ip), vehicle: saline
[11] = dose: 50.0 mg/kg/injection, schedule: Q01DX009 (ip), vehicle: saline with Tween-80
[12] = dose: 60.0 mg/kg/injection, schedule: Q01DX005 (ip), vehicle: saline with Tween-80
[13] = dose: 120.0 mg/kg/injection, schedule: Q01DX005 (ip), vehicle: saline with Tween-80
[14] = dose: 240.0 mg/kg/injection, schedule: Q01DX005 (ip), vehicle: saline with Tween-80
[15] = dose: 100.0 mg/kg/injection, schedule: Q01DX009 (ip), vehicle: saline
[16] = dose: 200.0 mg/kg/injection, schedule: Q01DX009 (ip), vehicle: saline
[17] = dose: 12.5 mg/kg/injection, schedule: Q01DX009 (ip), vehicle: saline with Tween-80
[18] = dose: 25.0 mg/kg/injection, schedule: Q01DX009 (ip), vehicle: saline sonified
[19] = dose: 50.0 mg/kg/injection, schedule: Q01DX009 (ip), vehicle: saline sonified
[20] = dose: 50.0 mg/kg/injection, schedule: Q01DX009 (ip), vehicle: saline
[21] = dose: 25.0 mg/kg/injection, schedule: Q01DX009 (ip), vehicle: saline
[22] = dose: 100.0 mg/kg/injection, schedule: Q04DX002 (ip), vehicle: saline with Tween-80
[23] = dose: 200.0 mg/kg/injection, schedule: Q04DX002 (ip), vehicle: saline with Tween-80
[24] = dose: 100.0 mg/kg/injection, schedule: Q01DX001 (ip), vehicle: Klucel (hydroxypropylcellulose) (HPC)
[25] = dose: 200.0 mg/kg/injection, schedule: Q01DX001 (ip), vehicle: Klucel (hydroxypropylcellulose) (HPC)
[26] = dose: 400.0 mg/kg/injection, schedule: Q01DX001 (ip), vehicle: Klucel (hydroxypropylcellulose) (HPC)

SMILES: O=C1c2cccc3cccc(c23)C(=O)N1c1ncn[nH]1
- T/C (dose: 6.25 mg/kg/injection, schedule: Q01DX005 (ip), vehicle: saline with Tween-80): 87 % of control
- T/C [1]: 86 % of control
- T/C [2]: 88 % of control

SMILES: O=S1(=O)CC(SC2CS(=O)(=O)C2)C1
- T/C (dose: 100.0 mg/kg/injection, schedule: Q01DX001 (ip), vehicle: saline with Tween-80): 103 % of control
- T/C (dose: 200.0 mg/kg/injection, schedule: Q01DX001 (ip), vehicle: saline with Tween-80): 101 % of control
- T/C (dose: 400.0 mg/kg/injection, schedule: Q01DX001 (ip), vehicle: saline with Tween-80): 100 % of control

SMILES: COC(=O)Nc1nc2ccc(C(=O)C3CC3)cc2[nH]1
- T/C [1]: 111 % of control
- T/C [3]: 108 % of control
- T/C [4]: 117 % of control
- T/C [5]: 180 % of control

SMILES: COC(=O)Nc1nc2ccc(C(C)(O)c3cccs3)cc2[nH]1 (stereo not drawn)
- T/C [3]: 100 % of control
- T/C [4]: 103 % of control
- T/C [5]: 103 % of control
- T/C [2]: 100 % of control

SMILES: Nc1nnc2nc(CC(=O)c3ccccc3)c(=O)[nH]n12
- T/C (dose: 60.0 mg/kg/injection, schedule: Q01DX005 (ip), vehicle: saline): 96 % of control
- T/C (dose: 120.0 mg/kg/injection, schedule: Q01DX005 (ip), vehicle: saline): 100 % of control
- T/C (dose: 240.0 mg/kg/injection, schedule: Q01DX005 (ip), vehicle: saline): 100 % of control

SMILES: CCCCNC(=O)c1cc(NC(=O)c2ccc(C(=O)Nc3cc(C(=O)NCCCC)cc(C4N=CCN4)c3)cc2)cc(C2=NCCN2)c1 (stereo not drawn)
- T/C [4]: 94 % of control
- T/C [5]: 95 % of control

SMILES: CC(C)CC(NC=O)C(=O)O (stereo not drawn)
- T/C [6]: 104 % of control and 109 % of control
- T/C [7]: 95 % of control and 100 % of control
- T/C [8]: 90 % of control

SMILES: CC(=O)N(O)C(C)=O
- T/C [9]: 100 % of control
- T/C [10]: 104 % of control
- T/C (dose: 200.0 mg/kg/injection, schedule: Q01DX005 (ip), vehicle: saline): 107 % of control

SMILES: NC(=O)c1nnn2c1nc(N)c1ccccc12
- T/C [11]: 90 % of control
- T/C (dose: 100.0 mg/kg/injection, schedule: Q01DX009 (ip), vehicle: saline with Tween-80): 89 % of control
- T/C (dose: 200.0 mg/kg/injection, schedule: Q01DX009 (ip), vehicle: saline with Tween-80): 91 % of control

SMILES: Oc1c(-c2ccccc2)nc2cnccn12
- T/C [12]: 100 % of control
- T/C [13]: 107 % of control
- T/C [14]: 107 % of control

SMILES: COc1ccc(C2=Nn3c(nc(N)nc3=N)SC2)cc1
- T/C [3]: 113 % of control
- T/C [4]: 100 % of control
- T/C [5]: 96 % of control

SMILES: COC(c1nc(N)no1)c1c(Cl)cccc1Cl (stereo not drawn)
- T/C [6]: 97 % of control
- T/C [7]: 91 % of control
- T/C [8]: 92 % of control

SMILES: CCCCCCNP1(NCCCCCC)=NP(NCCCCCC)(NCCCCCC)=NP(NCCCCCC)(NCCCCCC)=NP(NCCCCCC)(NCCCCCC)=N1
- T/C (dose: 37.5 mg/kg/injection, schedule: Q01DX005 (ip), vehicle: Klucel (hydroxypropylcellulose) (HPC)): 90 % of control
- T/C (dose: 75.0 mg/kg/injection, schedule: Q01DX005 (ip), vehicle: Klucel (hydroxypropylcellulose) (HPC)): 97 % of control

SMILES: S=C(S)NN1CCOCC1
- T/C [15]: 88 % of control
- T/C [16]: 110 % of control
- T/C (dose: 400.0 mg/kg/injection, schedule: Q01DX009 (ip), vehicle: saline): 106 % of control

SMILES: O=Nc1sc(=S)n(N2CCCCC2)c1O
- T/C [6]: 99 % of control
- T/C [7]: 96 % of control

SMILES: CCCC1CC[N-]CC1.CCCC1CC[N-]CC1.CCCC1CC[N-]CC1.CCCC1CC[N-]CC1.CS(C)=O.CS(C)=O.[Cl-].[Cl-].[Cl-].[Cl-].[Cl][Rh][Cl].[Rh+3]
- T/C (dose: 3.13 mg/kg/injection, schedule: Q01DX009 (ip), vehicle: saline): 117 % of control
- T/C [17]: 123 % of control

SMILES: CC1=NN(c2cccc(S(=O)(=O)O)c2)C(=O)C1
- T/C [18]: 100 % of control
- T/C [19]: 100 % of control
- T/C [20]: 89 % of control
- T/C (dose: 100.0 mg/kg/injection, schedule: Q01DX009 (ip), vehicle: saline sonified): 100 % of control
- T/C [15]: 95 % of control
- T/C [16]: 96 % of control

SMILES: Cc1c(-c2ccccc2)nc2sccn12
- T/C [21]: 102 % of control
- T/C [20]: 102 % of control
- T/C [15]: 96 % of control

SMILES: O=NNc1nccs1
- T/C (dose: 1.56 mg/kg/injection, schedule: Q01DX009 (ip), vehicle: water): 96 % of control
- T/C (dose: 3.12 mg/kg/injection, schedule: Q01DX009 (ip), vehicle: water): 100 % of control
- T/C (dose: 6.25 mg/kg/injection, schedule: Q01DX009 (ip), vehicle: water): 99 % of control
- T/C (dose: 12.5 mg/kg/injection, schedule: Q01DX009 (ip), vehicle: water): 97 % of control

SMILES: CC1(C)CC(=O)c2c(ncc3cc4c(cc23)OCO4)C1
- T/C [22]: 110 % of control
- T/C [23]: 118 % of control

SMILES: Oc1c(CNCCCN2CCCC2)cc(Cl)c2cccnc12
- T/C (dose: 12.5 mg/kg/injection, schedule: Q01DX009 (ip), vehicle: saline): 102 % of control and 107 % of control
- T/C [21]: 91 % of control and 96 % of control
- T/C [20]: 88 % of control and 95 % of control
- T/C [15]: 110 % of control and 112 % of control

SMILES: COC(=O)C1CSC(c2c(CO)cnc(C)c2O)N1 (stereo not drawn)
- T/C (dose: 100.0 mg/kg/injection, schedule: Q04DX002 (ip), vehicle: saline + Tween-80 + alcohol): 105 % of control
- T/C (dose: 200.0 mg/kg/injection, schedule: Q04DX002 (ip), vehicle: saline + Tween-80 + alcohol): 96 % of control
- T/C (dose: 400.0 mg/kg/injection, schedule: Q04DX002 (ip), vehicle: saline + Tween-80 + alcohol): 107 % of control

SMILES: CCCCCNC(=S)N/N=C(\C)c1ccccn1
- T/C (dose: 12.5 mg/kg/injection, schedule: Q01DX009 (ip), vehicle: Klucel (hydroxypropylcellulose) (HPC)): 107 % of control
- T/C (dose: 25.0 mg/kg/injection, schedule: Q01DX009 (ip), vehicle: Klucel (hydroxypropylcellulose) (HPC)): 123 % of control
- T/C (dose: 50.0 mg/kg/injection, schedule: Q01DX009 (ip), vehicle: Klucel (hydroxypropylcellulose) (HPC)): 106 % of control

SMILES: Cc1ccc(S(=O)(=O)C23N=NC(C)(C)C2C2CC3C3CN=NC32)cc1 (stereo not drawn)
- T/C [24]: 103 % of control
- T/C [25]: 109 % of control
- T/C [26]: 102 % of control

SMILES: Cc1ccc(NC(=O)CCC(=O)C(C)C(=O)c2ccccc2)cc1C (stereo not drawn)
- T/C [12]: 105 % of control
- T/C [13]: 105 % of control
- T/C [14]: 109 % of control

SMILES: C(NC=C(c1ccccc1)c1ccccc1)=C(c1ccccc1)c1ccccc1
- T/C [24]: 103 % of control
- T/C [25]: 107 % of control
- T/C [26]: 103 % of control

SMILES: COC(=O)C1C2C=CC(CC2)C1C(=O)OC (stereo not drawn)
- T/C (dose: 100.0 mg/kg/injection, schedule: Q04DX003 (ip), vehicle: saline with Tween-80): 98 % of control
- T/C (dose: 200.0 mg/kg/injection, schedule: Q04DX003 (ip), vehicle: saline with Tween-80): 102 % of control
- T/C (dose: 400.0 mg/kg/injection, schedule: Q04DX003 (ip), vehicle: saline with Tween-80): 89 % of control

SMILES: C=Cc1ccccc1N/N=C(\Cl)C(=O)OCC
- T/C [22]: 108 % of control
- T/C [23]: 113 % of control

SMILES: CSC(=S)N/N=C/c1ccccn1
- T/C [17]: 100 % of control
- T/C (dose: 25.0 mg/kg/injection, schedule: Q01DX009 (ip), vehicle: saline with Tween-80): 104 % of control and 109 % of control
- T/C [11]: 113 % of control

SMILES: C=C=C(C)C(c1ccccc1)N(C)C (stereo not drawn)
- T/C [9]: 108 % of control
- T/C [10]: 109 % of control

SMILES: NC(N)=Nc1nc2ccccc2s1
- T/C (dose: 12.5 mg/kg/injection, schedule: Q01DX009 (ip), vehicle: saline sonified): 100 % of control
- T/C [18]: 100 % of control
- T/C [19]: 100 % of control
